Results on one substance are retold here after US20220401951A1, “RAPID CELL CULTURE TEST DEVICE INCLUDING ISLAND STRUCTURES” (QuantaMatrix Inc., priority 2020, published 2022).

The assay relates to P. aeruginosa ATCC 27853. Briefly: antibiotic susceptibility test in the cell culture test device (solid thin film, microscopic observation). The following applies: device of Example 1. The class given is cell-based. The protocol:
Colistin as an antibiotic was loaded into the island structure through the third inlet portion of each of the well units. The antibiotic was loaded in an amount of 10 μl, dried, and fixed in the shape illustrated in (b) of FIG. 5.
Thereafter, 10 μl of a mixture of agarose and a bacterial solution (P. aeruginosa ATCC 27853) as a first fluid was dispensed into the first accommodation space through the first inlet portion. After the introduction of the first fluid into the first accommodation space was completed, 100 μl of a culture medium as a second fluid was introduced into the second accommodation space through the second inlet portion.
In each of Examples 1-8 and Comparative Examples 1-4, 10 cell culture test devices having the same structure were manufactured. A determination was made as to whether the solid thin films of the first fluid were defective. The susceptibilities to the antibiotic at four selected points of each first accommodation space were evaluated. The four points (a, b, c, and d) were at right angles to the first inlet portion. […] The solid thin film in the first accommodation space was visually observed to determine whether the solid thin film was defective.
Particularly, the effect of the antibiotic was pronounced at ≥1 mg/ml.

For the substance Colistin, for the setting “after 6 h, 0 to 2 mg/ml colistin (FIG. 10)”, the “response of bacteria in solid thin film to colistin” value was “Clear responses were observed”. The “colistin concentration at which the effect of the antibiotic was pronounced” value (observation after 6 h, concentrations tested 0, 0.12, 0.25, 0.5, 1, 2 mg/ml (FIG. 10)) was not below 1 mg/mL.
